In US11066414B2, “Cot modulators and methods of use thereof” (Gilead Sciences, Inc., priority 2015, dated 2021):
pEC50: −log10 of the molar value.

System: TNFα
Assay: Cot Monocyte TNFα Cell Based Assay
Conditions: Homo sapiens, Monocyte, read-out: EC50 TNF, LPS-stimulated human monocytes, TNFα

Structure (SMILES)	pEC50
Cc1ncsc1[C@H](Nc1cc(Cl)c2ncc(C#N)c(Nc3ccc(Cl)c(Cl)c3F)c2c1)c1cn(C2COC2)nn1 [Example 217, (R)-8-chloro-4-((3,4-dichloro-2-fluorophenyl)amino)-6-(((4-methylthiazol-5-yl)(1-(oxetan-3-yl)-1H-1,2,3-triazol-4-yl)methyl)amino)quinoline-3-carbonitrile]	6.58
Cc1ncccc1[C@H](Nc1cc(Cl)c2ncc(C#N)c(Nc3ccc(F)c(Cl)c3)c2c1)c1cn(COC(=O)C(C)(C)C)nn1 [Example 274, (S)-(4-(((8-chloro-4-((3-chloro-4-fluorophenyl)amino)-3-cyanoquinolin-6-yl)amino)(2-methylpyridin-3-yl)methyl)-1H-1,2,3-triazol-1-yl)methyl pivalate]	6.43
CC(C)(C)CNc1c(C#N)cnc2c(C#N)cc(N[C@H](c3cn(C4(CF)CC4)nn3)c3cccc4ncsc34)cc12 [Example 441, (S)-6-((benzo[d]thiazol-7-yl(1-(1-(fluoromethyl)cyclopropyl)-1H-1,2,3-triazol-4-yl)methyl)amino)-4-(neopentylamino)quinoline-3,8-dicarbonitrile]	7.59
CC(C)(C)n1cc([C@@H](Nc2cc(Cl)c3ncc(C#N)c(Nc4ccc(F)c(Cl)c4)c3c2)c2cscn2)nn1 [Example 361, (S)-6-(((1-(tert-butyl)-1H-1,2,3-triazol-4-yl)(thiazol-4-yl)methyl)-amino)-8-chloro-4-((3-chloro-4-fluorophenyl)amino)quinoline-3-carbonitrile]	6.13
CC(C)(C)N1CCC(n2cc([C@@H](Nc3cc(Cl)c4ncc(C#N)c(Nc5ccc(F)c(Cl)c5)c4c3)c3cccc4c3CCN4)nn2)CC1 [Example 60, (S)-6-(((1-(1-(tert-butyl)piperidin-4-yl)-1H-1,2,3-triazol-4-yl)(indolin-4-yl)methyl)amino)-8-chloro-4-((3-chloro-4-fluorophenyl)amino)quinoline-3-carbonitrile]	6.88
Cc1ccc([C@H](Nc2cc(Cl)c3ncc(C#N)c(NCC(C)(C)C)c3c2)c2cn(C3(C(F)(F)F)CC3)nn2)c(C)n1 [Example 687, (S)-8-chloro-6-(((2,6-dimethylpyridin-3-yl)(1-(1-(trifluoromethyl)cyclopropyl)-1H-1,2,3-triazol-4-yl)methyl)amino)-4-(neopentylamino)quinoline-3-carbonitrile]	6.75
CC(C)(C)CNc1c(C#N)cnc2c(Cl)cc(N[C@@H](c3ccc4cccnc4c3)c3cn(C4(C(F)F)CC4)nn3)cc12 [Example 699, (S)-8-chloro-6-(((1-(1-(difluoromethyl)cyclopropyl)-1H-1,2,3-triazol-4-yl)(quinolin-7-yl)methyl)amino)-4-(neopentylamino)quinoline-3-carbonitrile]	6.41
Cn1ncc2c([C@H](Nc3cc(Cl)c4ncc(C#N)c(NCC(C)(C)C)c4c3)c3cn(Cc4c(F)cccc4F)nn3)cccc21 [Example 655, (S)-8-chloro-6-(((1-(2,6-difluorobenzyl)-1H-1,2,3-triazol-4-yl)(1-methyl-1H-indazol-4-yl)methyl)amino)-4-(neopentylamino)quinoline-3-carbonitrile]	6.98
Cc1nc(C)c([C@H](Nc2cc(Cl)c3ncc(C#N)c(Nc4ccc(F)c(Cl)c4)c3c2)c2cn(C3CCN(C(C)(C)C)CC3)nn2)s1 [Example 261, (R)-6-(((1-(1-(tert-butyl)piperidin-4-yl)-1H-1,2,3-triazol-4-yl)(2,4-dimethyl-thiazol-5-yl)methyl)amino)-8-chloro-4-((3-chloro-4-fluorophenyl)amino)-quinoline-3-carbonitrile]	6.46
CC(C)(C)CNc1c(C#N)cnc2c(Cl)cc(N[C@@H](c3ccc(Cl)nc3)c3cn(C4(C(F)(F)F)CC4)nn3)cc12 [Example 793, (S)-8-chloro-6-(((6-chloropyridin-3-yl)(1-(1-(trifluoromethyl)cyclopropyl)-1H-1,2,3-triazol-4-yl)methyl)amino)-4-(neopentylamino)quinoline-3-carbonitrile]	6.11
Cc1nc(Cl)ccc1[C@H](Nc1cc(Cl)c2ncc(C#N)c(Nc3cnc(F)c(F)c3)c2c1)c1c[nH]nn1 [Example 169, (S)-8-chloro-6-(((6-chloro-2-methylpyridin-3-yl)(1H-1,2,3-triazol-4-yl)methyl)amino)-4-((5,6-difluoropyridin-3-yl)amino)quinoline-3-carbonitrile]	5.91
CC(C)n1cc([C@@H](Nc2cc(Cl)c3ncc(C#N)c(Nc4ccc(F)c(Cl)c4)c3c2)c2cocn2)nn1 [Example 312, (S)-8-chloro-4-((3-chloro-4-fluorophenyl)amino)-6-(((1-isopropyl-1H-1,2,3-triazol-4-yl)(oxazol-4-yl)methyl)amino)quinoline-3-carbonitrile]	5.91
Cn1ccc([C@H](Nc2cc(Cl)c3ncc(C#N)c(Nc4ccc(F)c(Cl)c4)c3c2)c2cn(C3CCN(C(C)(C)C)CC3)nn2)n1 [Example 268, (R)-6-(((1-(1-(tert-butyl)piperidin-4-yl)-1H-1,2,3-triazol-4-yl)(1-methyl-1H-pyrazol-3-yl)methyl)amino)-8-chloro-4-((3-chloro-4-fluorophenyl)-amino)quinoline-3-carbonitrile]	6.63
CC(C)n1cc([C@@H](Nc2cc(Cl)c3ncc(C#N)c(Nc4ccc(F)c(Cl)c4)c3c2)c2csc(N3CCOCC3)n2)nn1 [Example 301, (S)-8-chloro-4-((3-chloro-4-fluoro-phenyl)amino)-6-(((1-isopropyl-1H-1,2,3-triazol-4-yl)(2-morpholinothiazol-4-yl)methyl)amino)quinoline-3-carbonitrile]	6.38
CC[C@@H](Nc1c(C#N)cnc2c(Cl)cc(N[C@@H](c3cccnc3)c3cn([C@@H](C)CF)nn3)cc12)c1ccccc1 [Example 181, 8-chloro-6-(((S)-(1-((S)-1-fluoropropan-2-yl)-1H-1,2,3-triazol-4-yl)(pyridin-3-yl)methyl)amino)-4-(((R)-1-phenylpropyl)amino)quinoline-3-carbonitrile]	7.04
CC(C)n1cc([C@@H](Nc2cc(Cl)c3ncc(C#N)c(Nc4ccc(F)c(Cl)c4)c3c2)c2cncs2)nn1 [Example 303, (R)-8-chloro-4-((3-chloro-4-fluorophenyl)amino)-6-(((1-isopropyl-1H-1,2,3-triazol-4-yl)(thiazol-5-yl)methyl)amino)quinoline-3-carbonitrile]	6.06
Cc1ccc([C@H](Nc2cc(Cl)c3ncc(C#N)c(Nc4ccc(F)c(Cl)c4)c3c2)c2cn(C(C)C)nn2)cn1 [Example 280, (S)-8-chloro-4-((3-chloro-4-fluorophenyl)amino)-6-(((1-isopropyl-1H-1,2,3-triazol-4-yl)(6-methylpyridin-3-yl)methyl)amino)quinoline-3-carbonitrile]	6.09
CC(C)(C)CNc1c(C#N)cnc2c(Cl)cc(N[C@H](c3cn(C4(C(F)(F)F)CC4)nn3)c3cccc4c(=O)n(C(F)F)ccc34)cc12 [Example 788, (S)-8-chloro-6-(((2-(difluoromethyl)-1-oxo-1,2-dihydroisoquinolin-5-yl)(1-(1-(trifluoromethyl)cyclopropyl)-1H-1,2,3-triazol-4-yl)methyl)amino)-4-(neopentylamino)quinoline-3-carbonitrile]	6.68
Cc1nc(F)ccc1[C@H](Nc1cc(C#N)c2ncc(C#N)c(NCC(C)(C)C)c2c1)c1cn(C(C)(C)C)nn1 [Example 589, (S)-6-(((1-(tert-butyl)-1H-1,2,3-triazol-4-yl)(6-fluoro-2-methylpyridin-3-yl)methyl)amino)-4-(neopentylamino)quinoline-3,8-dicarbonitrile]	7.47
Cc1scnc1[C@H](Nc1cc(Cl)c2ncc(C#N)c(Nc3ccc(F)c(Cl)c3)c2c1)c1cn(C2CCN(C(C)(C)C)CC2)nn1 [Example 137, (S)-6-(((1-(1-(tert-butyl)piperidin-4-yl)-1H-1,2,3-triazol-4-yl)(5-methylthiazol-4-yl)methyl)amino)-8-chloro-4-((3-chloro-4-fluorophenyl)amino)quinoline-3-carbonitrile]	6.63

Same assay, conditions: Homo sapiens, Monocyte, read-out: EC50 TNF, LPS-stimulated human monocytes, TNFα TR-FRET

Structure (SMILES)	pEC50
CC(C)(C)CNc1c(C#N)cnc2c(Cl)cc(N[C@H](c3nnn(C4(C(F)F)CC4)c3F)c3cccc4ncccc34)cc12 [Example 962, (S)-8-chloro-6-(((1-(1-(difluoromethyl)cyclopropyl)-5-fluoro-1H-1,2,3-triazol-4-yl)(quinolin-5-yl)methyl)amino)-4-(neopentylamino)quinoline-3-carbonitrile]	6.87
Cc1nc(F)ccc1[C@H](Nc1cc(C#N)c2ncc(C#N)c(NCC(C)(C)C(F)(F)F)c2c1)c1nnn(C2(C3CC3)CC2)c1F [Example 862, (S)-6-(((1-([1,1′-bi(cyclopropan)]-1-yl)-5-fluoro-1H-1,2,3-triazol-4-yl)(6-fluoro-2-methylpyridin-3-yl)methyl)amino)-4-((3,3,3-trifluoro-2,2-dimethylpropyl)amino)quinoline-3,8-dicarbonitrile]	7.31
COc1ccc([C@H](Nc2cc(C#N)c3ncc(C#N)c(NCC(C)(C)C)c3c2)c2cn(C3(C(F)(F)F)CC3)nn2)cn1 [Example 905, (S)-6-(((6-methoxypyridin-3-yl)(1-(1-(trifluoromethyl)cyclopropyl)-1H-1,2,3-triazol-4-yl)methyl)amino)-4-(neopentylamino)quinoline-3,8-dicarbonitrile]	6.67
Cc1ncsc1[C@H](Nc1cc(C#N)c2ncc(C#N)c(NCC(C)(C)C)c2c1)c1cn(C2(C3CC3)CC2)nn1 [Example 903, (R)-6-(((1-([1,1′-bi(cyclopropan)]-1-yl)-1H-1,2,3-triazol-4-yl)(4-methylthiazol-5-yl)methyl)amino)-4-(neopentylamino)quinoline-3,8-dicarbonitrile]	7.44
CC(C)(C)CNc1c(C#N)cnc2c(Cl)cc(N[C@H](c3cn(C4(C(F)(F)F)CC4)nn3)c3cccc4c(Cl)nccc34)cc12 [Example 916, (S)-8-chloro-6-(((1-chloroisoquinolin-5-yl)(1-(1-(trifluoromethyl)cyclopropyl)-1H-1,2,3-triazol-4-yl)methyl)amino)-4-(neopentylamino)quinoline-3-carbonitrile]	6.57

Same assay, conditions: read-out: EC50 TNF; LPS-stimulated human monocytes, TNFα

Structure (SMILES)	pEC50
Cc1nc(F)ccc1[C@H](Nc1cc(Cl)c2ncc(C#N)c(NCC(C)(C)C)c2c1)c1cn(CC(C)(C)C(F)(F)F)nn1 [Example 755]	6.44
